Here are results for 43 compounds from BindingDB's records for doi:10.7270/Q2125R2H (University of Pittsburgh, 2007).

SMILES strings stand for the structures.

The experiment concerns the target T1, M-phase inducer phosphatase 2 (Homo sapiens, UniProt P30305).
T1 sequence (P30305 whole entry): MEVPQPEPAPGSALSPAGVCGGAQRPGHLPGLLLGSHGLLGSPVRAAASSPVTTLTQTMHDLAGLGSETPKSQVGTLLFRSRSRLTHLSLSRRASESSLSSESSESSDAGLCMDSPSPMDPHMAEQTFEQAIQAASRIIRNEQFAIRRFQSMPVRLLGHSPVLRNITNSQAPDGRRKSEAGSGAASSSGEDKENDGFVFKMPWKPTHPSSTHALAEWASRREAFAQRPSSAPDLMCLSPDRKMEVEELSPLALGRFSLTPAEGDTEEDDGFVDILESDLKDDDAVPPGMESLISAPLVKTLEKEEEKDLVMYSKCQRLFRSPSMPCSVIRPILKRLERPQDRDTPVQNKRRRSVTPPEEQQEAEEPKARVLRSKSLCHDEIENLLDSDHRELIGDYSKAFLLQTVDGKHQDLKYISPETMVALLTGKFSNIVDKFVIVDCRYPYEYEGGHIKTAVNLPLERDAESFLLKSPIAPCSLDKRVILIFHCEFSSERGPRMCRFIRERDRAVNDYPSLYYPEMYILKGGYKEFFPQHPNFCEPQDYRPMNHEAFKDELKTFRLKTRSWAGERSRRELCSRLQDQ
Nature of the experiment: Cdc25B phosphatase inhibitors, dose response, biochemical, probe assessment (AID 676).
Consider `O=C(Nc1ccc2nc(-c3ccco3)c(-c3ccco3)nc2c1)N1CCCCCC1`, for which the midpoint of inhibition, the IC50, lay at 31.4 µM.

Consider `CCOc1cc(/C=C(/C#N)c2ccc(F)cc2)ccc1OCc1ccc(C(=O)O)o1` [5-[[4-[(E)-2-cyano-2-(4-fluorophenyl)ethenyl]-2-ethoxyphenoxy]methyl]furan-2-carboxylic acid], for which the IC50 – broadly, the concentration needed to halve the response being measured – is over 50 µM. In the case of `O=C(c1cccs1)c1no[n+]([O-])c1C(=O)c1cccs1` [(5-oxidanidyl-4-thiophen-2-ylcarbonyl-1,2,5-oxadiazol-5-ium-3-yl)-thiophen-2-yl-methanone] it was over 50 µM; in that of `COC(=O)c1ccccc1NC(=O)CN1C(=O)C2CCCN2c2ncc(Cl)cc21` (stereo not drawn) [MLS000094302], over 50 µM. In the case of `Cc1ccc(-c2csc(NC(=O)c3ccno3)n2)cc1` [MLS000081820] it was 35.8 µM; in that of `COc1ccc(-c2cc3nc(C4CCN(C(=O)OC(C)(C)C)CC4)c(C(=O)O)cn3n2)cc1` [2-(4-methoxyphenyl)-5-[1-[(2-methylpropan-2-yl)oxy-oxomethyl]-4-piperidinyl]-6-pyrazolo[1,5-a]pyrimidinecarboxylic acid], over 50 µM; in that of `COc1ccc(Cn2c(C)nc3c(c2=O)c2nc4ccccc4nc2n3Cc2ccco2)cc1` [MLS000079944], 46.8 µM.

`CC1=C(/C=C/C(C)=C/C=C/C(C)=C/C(=O)O)C(C)(C)CCC1` [ALL-TRANS-RETINOIC ACID] gave an IC50 of over 50 µM. With `N#Cc1c(N2CCCC2)nc(N)c2c(N)nc(N3CCCC3)cc12` [SMR000061605] the figure was 21.2 µM; with `Cc1cccc(N2CCN(C(=O)Cc3c(C(=O)O)[nH]c4ccc(Cl)cc34)CC2)c1C` [5-chloranyl-3-[2-[4-(2,3-dimethylphenyl)piperazin-1-yl]-2-oxidanylidene-ethyl]-1H-indole-2-carboxylic acid], over 50 µM.

The compound `CCn1nc(-c2cccs2)nc2c(=O)n(C)c(=O)nc1-2` [1-ethyl-6-methyl-3-thiophen-2-yl-pyrimido[5,4-e][1,2,4]triazine-5,7-dione] had an IC50 of 0.552 µM. With `CCn1nc(-c2ccccc2)nc2c(=O)n(C)c(=O)nc1-2` [1-Ethyl-6-methyl-3-phenyl-1H-pyrimido[5,4-e][1,2,4]triazine-5,7-dione] the figure was 0.447 µM; with `O=C1Nc2ccccc2SC(c2ccccc2)C1O` (stereo not drawn) [3-hydroxy-2-phenyl-2,3-dihydro-1,5-benzothiazepin-4(5H)-one], over 50 µM; with `COc1ccc2noc3c2c1C(=O)c1ccccc1-3` [MLS000106874], over 50 µM. Turning to `N#Cc1c(N)sc(=S)c2c1CCN(Cc1ccccc1)C2` [3-Amino-7-benzyl-1-thioxo-5,6,7,8-tetrahydro-1H-thiopyrano[3,4-c]pyridine-4-carbonitrile], the IC50 came to 4.99 µM. `CCOc1ccc(-c2cc3nc(C4CCN(C(=O)OC(C)(C)C)CC4)c(C(=O)O)cn3n2)cc1` [2-(4-ethoxyphenyl)-5-[1-[(2-methylpropan-2-yl)oxy-oxomethyl]-4-piperidinyl]-6-pyrazolo[1,5-a]pyrimidinecarboxylic acid]: the concentration for half-maximal inhibition (IC50) is over 50 µM.

`Cc1cc(NC(=O)c2ccc(S(=O)(=O)N3CCCC3)cc2)nc2c1c(=O)oc1ccccc12` [MLS000091355] displayed an IC50 of over 50 µM. With `CCOc1ccc2noc3c2c1C(=O)c1ccccc1-3` [MLS000106837], the IC50 is over 50 µM. In the case of `Cc1c(N=c2c(=O)c3ccccc3c2=O)c(=O)n(-c2ccccc2)n1C` [MLS000105950] it was 13.7 µM. Compound `CCCCC[C@H](O)C=C[C@H]1C=CC(=O)[C@@H]1C/C=C\CCCC(=O)O` [(Z)-7-[(1R,5S)-2-oxidanylidene-5-[(E,3S)-3-oxidanyloct-1-enyl]cyclopent-3-en-1-yl]hept-5-enoic acid] showed an IC50 of over 50 µM.

`CCCCn1c(NC(=O)c2ccccc2)c(C#N)c2nc3ccccc3nc21` [SMR000060333]: the IC50 was found to be 31.5 µM.

Compound `Cc1cc(C)n2c(SCC(=O)N3CCN(S(=O)(=O)c4ccc(Cl)cc4)CC3)nnc2n1` [1-[4-(4-chlorophenyl)sulfonyl-1-piperazinyl]-2-[(5,7-dimethyl-[1,2,4]triazolo[4,3-a]pyrimidin-3-yl)thio]ethanone] returned an IC50 of over 50 µM.

For the compound `Cc1ccc(C)n1-c1cccc(C(=O)O)c1`, the IC50 was over 50 µM.

In the case of `CCOC(=O)c1ccc2c(c1)C1C=CCC1C(C(=O)O)N2` (stereo not drawn) [MLS-0025126.0001], half-maximal inhibition (IC50) required 18.2 µM. With `CCn1c(SCC(=O)Nc2ccc3c(c2)c2ccccc2n3CC)nnc1-c1ccco1` [MLS000050867] the figure was 46.1 µM. `CCc1ccc(NC(=O)CSc2nc3ccccc3c(=O)n2CCN2CCOCC2)cc1` [MLS000095236] had an IC50 of over 50 µM.

`[O-]/[N+](=C\c1ccncc1)c1ccccc1` registered a half-maximal inhibitory concentration (IC50) of over 50 µM.

Consider `Cc1ccc(/C=C/C2=Cc3c(sc(NC(=O)CSc4nnc(N)[nH]4)c3C#N)C(C)(C)C2)o1` [2-[(5-azanyl-1H-1,2,4-triazol-3-yl)sulfanyl]-N-[3-cyano-7,7-dimethyl-5-[(E)-2-(5-methylfuran-2-yl)ethenyl]-6H-1-benzothiophen-2-yl]ethanamide], for which the IC50 was 46.9 µM. In the case of `COc1ccc(Br)cc1C=c1sc2nc(-c3ccco3)nn2c1=O` [5-[(5-bromanyl-2-methoxy-phenyl)methylidene]-2-(furan-2-yl)-[1,3]thiazolo[3,2-b][1,2,4]triazol-6-one] it was 14.8 µM.

As to `CCCSc1nnc(NC(=O)c2sc3nc(-c4cccs4)ccc3c2N)s1` [3-amino-N-(5-propylsulfanyl-1,3,4-thiadiazol-2-yl)-6-thiophen-2-ylthieno[2,3-b]pyridine-2-carboxamide], the IC50 is over 50 µM.

For `Cc1cccc(NC(=O)c2cc(NC(=O)C3CCCCC3C(=O)O)ccc2N2CCCCC2)c1` (stereo not drawn) [2-({[3-{[(3-methylphenyl)amino]carbonyl}-4-(1-piperidinyl)phenyl]amino}carbonyl)cyclohexanecarboxylic acid], the IC50 is over 50 µM.

In turn, `FC(F)(F)c1ccc(N2CCOCC2)c(Nc2nc3ccccc3n3cnnc23)c1` [MLS000093276] gave an IC50 of over 50 µM. With `O=C1C=Cc2ccccc2C1=O` [1,2-dihydronaphthalene-1,2-dione] the figure was 19 µM; with `Cc1ccc2c(c1C)NC(C(=O)O)C1CC=CC21` (stereo not drawn), 15.9 µM. In the case of `CCn1c(SCC(=O)Nc2nc3ccc(OC)cc3s2)nc2c1c(=O)n(C)c(=O)n2C` [2-(7-Ethyl-1,3-dimethyl-2,6-dioxo-2,3,6,7-tetrahydro-1H-purin-8-ylsulfanyl)-N-(6-methoxy-benzothiazol-2-yl)-acetamide] it was over 50 µM; in that of `Cn1ncnc2c(=O)n(C)c(=O)nc1-2`, 0.396 µM; in that of `CC(C)Cn1c(N)c(C(=O)COC(=O)c2cc(-c3ccco3)nc3ccccc23)c(=O)n(C)c1=O` [2-(2-furanyl)-4-quinolinecarboxylic acid [2-[4-amino-1-methyl-3-(2-methylpropyl)-2,6-dioxo-5-pyrimidinyl]-2-oxoethyl] ester], 46.6 µM. With `O=C(NC1(O)C(=O)c2ccccc2C1=O)c1ccccc1` [N-(2-hydroxy-1,3-dioxo-2-indenyl)benzamide] the figure was 12.6 µM; with `O=C(Nc1ccccc1)c1ccc2nc(-c3ccco3)c(-c3ccco3)nc2c1` [2,3-di-2-furyl-N-phenyl-6-quinoxalinecarboxamide], 35.6 µM. For `CCCCCNC(=O)c1ccc2c(=O)[nH]c3c(C(=O)NCC4CCCO4)sc(=S)n3c2c1` (stereo not drawn) [5-oxo-N3-(2-oxolanylmethyl)-N8-pentyl-1-sulfanylidene-4H-thiazolo[3,4-a]quinazoline-3,8-dicarboxamide], the half-maximal inhibitory concentration (IC50) is over 50 µM. With `COCCCn1c(N)c(C(=O)NCCC(C)C)c2nc3ccccc3nc21` [MLS000041744] the figure was over 50 µM; with `O=C(OC1CCCCC1)c1ccc2c(c1)C1C=CCC1C(C(=O)O)N2` (stereo not drawn) [SMR000019385], 9.6 µM; with `CC(C)Sc1nc2sc3c(c2c2nnc(SCC(=O)NCc4ccco4)n12)CCCC3` [MLS000082957], over 50 µM.
